Measurements published in paper PMC11012124, “Synthesis of Novel Triazine-Based Chalcones and 8,9-dihydro-7H-pyrimido[4,5-b][1,4]diazepines as Potential Leads in the Search of Anticancer, Antibacterial and Antifungal Agents” (International Journal of Molecular Sciences, 2024).
≈ marks a conversion by molar mass, not a printed value.

Tests used:
NCI-H460 = test: cells; conditions: Homo sapiens, NCI-H460, 48 h; for CC50: read-out: LC50
SK-MEL-5 = test: cells; conditions: Homo sapiens, SK-MEL-5, 48 h; for CC50: read-out: LC50
NCI-H226 = test: cells; conditions: Homo sapiens, NCI-H226, 48 h; for CC50: read-out: LC50
MCF7 = test: cells; conditions: Homo sapiens, MCF7, 48 h; for CC50: read-out: LC50
IGROV1 = test: cells; conditions: Homo sapiens, IGROV-1, 48 h; for CC50: read-out: LC50
K-562 = test: cells; conditions: Homo sapiens, K562, 48 h; for GI50: K-562, 48 h; for CC50: read-out: LC50
OVCAR-3 = test: cells; conditions: Homo sapiens, OVCAR-3, 48 h; for CC50: read-out: LC50
NCI/ADR-RES = test: cells; conditions: Homo sapiens, 48 h; for CC50: read-out: LC50
786-0 = test: cells; conditions: Homo sapiens, 786-0, 48 h; for CC50: read-out: LC50
OVCAR-4 = test: cells; conditions: Homo sapiens, OVCAR-4, 48 h; for CC50: read-out: LC50
NCI-H23 = test: cells; conditions: Homo sapiens, NCI-H23, 48 h; for CC50: read-out: LC50
OVCAR-5 = test: cells; conditions: Homo sapiens, OVCAR-5, 48 h; for CC50: read-out: LC50
SF-268 = test: cells; conditions: Homo sapiens, SF-268, 48 h; for CC50: read-out: LC50
[1] = test system: M. tuberculosis ATCC 27294; test: Antitubercular broth microdilution MIC; format: cell-based; conditions: Mycobacterium tuberculosis; M. tuberculosis ATCC 27294 (H37Rv); read-out: Minimum inhibitory concentration (MIC)
HL-60(TB) = test: cells; conditions: Homo sapiens, HL-60, 48 h; for CC50: read-out: LC50
SK-MEL-2 = test: cells; conditions: Homo sapiens, SK-MEL-2, 48 h; for CC50: read-out: LC50
SF-295 = test: cells; conditions: Homo sapiens, SF-295, 48 h; for CC50: read-out: LC50
A498 = test: cells; conditions: Homo sapiens, A498, 48 h; for CC50: read-out: LC50
HOP-92 = test: cells; conditions: Homo sapiens, HOP-92, 48 h; for CC50: read-out: LC50
TK-10 = test: cells; conditions: Homo sapiens, TK-10, 48 h; for CC50: read-out: LC50
MDA-MB-435 = test: cells; conditions: Homo sapiens, MDA-MB-435, 48 h; for CC50: read-out: LC50
CCRF-CEM = test: cells; conditions: Homo sapiens, 48 h; for CC50: read-out: LC50
LOX IMVI = test: cells; conditions: Homo sapiens, 48 h; for CC50: read-out: LC50, LOX IMVI, 48 h
UACC-257 = test: cells; conditions: Homo sapiens, UACC-257, 48 h; for CC50: read-out: LC50
SN12C = test: cells; conditions: Homo sapiens, 48 h; for CC50: read-out: LC50
SR = test: cells; conditions: Homo sapiens, 48 h

`CN(C)c1nc(NCCNS(=O)(=O)c2ccc(C(=O)/C=C/c3ccc(C(F)(F)F)cc3)cc2)nc(Nc2ccc(F)cc2)n1` [24g] was tested, and the GI50 (NCI-H460) was 4.09 µM, the CC50 (NCI-H460) was 14.9 µM and the GI50 (SK-MEL-5) was 10.4 µM. It also gave a CC50 (SK-MEL-5) of 22.2 µM, a GI50 (NCI-H226) of 7.82 µM and a CC50 (NCI-H226) of 24.7 µM. For the same molecule, the GI50 (MCF7) was 1.7 µM, the CC50 (MCF7) was 3.56 µM and the GI50 (IGROV1) was 12.3 µM. The CC50 (IGROV1) was 24.9 µM, the GI50 (K-562) was 2.98 µM and the CC50 (K-562) was 30.4 µM. It also gave a GI50 (OVCAR-3) of 2.04 µM, a CC50 (OVCAR-3) of 5.61 µM and a GI50 (NCI/ADR-RES) of 10.7 µM. It also gave a CC50 (NCI/ADR-RES) of 23.7 µM, a GI50 (786-0) of 10.6 µM and a CC50 (786-0) of 22.7 µM. The GI50 (OVCAR-4) was 8.78 µM, the CC50 (OVCAR-4) was 23.1 µM and the GI50 (NCI-H23) was 11.2 µM. For the same molecule, the CC50 (NCI-H23) was 24.2 µM, the GI50 (OVCAR-5) was 12 µM and the CC50 (OVCAR-5) was 24.4 µM. For the same molecule, the GI50 (SF-268) was 7.71 µM, the CC50 (SF-268) was 22.5 µM and the MIC [1] was 50 µg/mL (≈ 79.4 µM). The GI50 (HL-60(TB)) was 3.81 µM, the CC50 (HL-60(TB)) was 30 µM and the GI50 (SK-MEL-2) was 9.45 µM. The CC50 (SK-MEL-2) was 22.3 µM, the GI50 (SF-295) was 11.3 µM and the CC50 (SF-295) was 23.5 µM. For the same molecule, the GI50 (A498) was 13 µM, the CC50 (A498) was 26.2 µM and the GI50 (HOP-92) was 6.15 µM. It also gave a CC50 (HOP-92) of 20.7 µM, a GI50 (TK-10) of 17.4 µM and a CC50 (TK-10) of 32 µM. For the same molecule, the GI50 (MDA-MB-435) was 2.86 µM, the CC50 (MDA-MB-435) was 8.49 µM and the GI50 (CCRF-CEM) was 3.79 µM. For the same molecule, the CC50 (CCRF-CEM) was > 100 µM, the GI50 (LOX IMVI) was 1.86 µM and the CC50 (LOX IMVI) was 3.84 µM. The GI50 (UACC-257) was 11 µM, the CC50 (UACC-257) was 25 µM and the GI50 (SN12C) was 6.36 µM. The CC50 (SN12C) was 19.9 µM.
For `CN(C)c1nc(NCCNS(=O)(=O)c2ccc(C3=Nc4c(N)nc(N)nc4NC(c4ccc(F)cc4)C3)cc2)nc(Nc2ccc(F)cc2)n1` (stereo not shown) [31f], the GI50 (NCI-H460) was 4.74 µM, the CC50 (NCI-H460) was > 100 µM and the GI50 (SK-MEL-5) was 3.36 µM. For the same molecule, the CC50 (SK-MEL-5) was 14.9 µM, the GI50 (NCI-H226) was > 100 µM and the CC50 (NCI-H226) was > 100 µM. It also gave a GI50 (MCF7) of 3.16 µM, a CC50 (MCF7) of 43.7 µM and a GI50 (IGROV1) of 5.01 µM. The CC50 (IGROV1) was > 100 µM, the GI50 (K-562) was 2.8 µM and the CC50 (K-562) was > 100 µM. The GI50 (OVCAR-3) was 8.09 µM, the CC50 (OVCAR-3) was > 100 µM and the GI50 (NCI/ADR-RES) was > 100 µM. For the same molecule, the CC50 (NCI/ADR-RES) was > 100 µM, the GI50 (786-0) was 4.77 µM and the CC50 (786-0) was > 100 µM. The CC50 (OVCAR-4) was > 100 µM, the GI50 (NCI-H23) was 54.1 µM and the CC50 (NCI-H23) was > 100 µM. The GI50 (OVCAR-5) was > 100 µM, the CC50 (OVCAR-5) was > 100 µM and the GI50 (SF-268) was 4.83 µM. For the same molecule, the CC50 (SF-268) was > 100 µM, the MIC [1] was 1.2 µg/mL (≈ 1.71 µM) and the GI50 (HL-60(TB)) was 3.12 µM. For the same molecule, the CC50 (HL-60(TB)) was > 100 µM, the GI50 (SK-MEL-2) was 8.17 µM and the CC50 (SK-MEL-2) was 29 µM. For the same molecule, the GI50 (SF-295) was 6.71 µM, the CC50 (SF-295) was > 100 µM and the GI50 (A498) was 22.1 µM. The CC50 (A498) was > 100 µM, the GI50 (HOP-92) was 3.09 µM and the CC50 (HOP-92) was 23.3 µM. For the same molecule, the GI50 (TK-10) was > 100 µM, the CC50 (TK-10) was > 100 µM and the GI50 (MDA-MB-435) was 5.93 µM. For the same molecule, the CC50 (MDA-MB-435) was > 100 µM, the GI50 (CCRF-CEM) was 3.99 µM and the CC50 (CCRF-CEM) was > 100 µM. The GI50 (LOX IMVI) was 2.62 µM, the CC50 (LOX IMVI) was 9.13 µM and the GI50 (UACC-257) was 11.4 µM. The CC50 (UACC-257) was > 100 µM.
`COc1cc(/C=C/C(=O)c2ccc(C)cc2)ccc1Oc1nc(Nc2ccc(F)cc2)nc(N(C)C)n1` [21b] was tested, and the GI50 (NCI-H460) was 12.1 µM, the CC50 (NCI-H460) was > 100 µM and the GI50 (SK-MEL-5) was 5.14 µM. For the same molecule, the CC50 (SK-MEL-5) was 78.5 µM, the GI50 (NCI-H226) was 5.22 µM and the CC50 (NCI-H226) was 49.1 µM. For the same molecule, the GI50 (MCF7) was 3.57 µM, the CC50 (MCF7) was > 100 µM and the GI50 (IGROV1) was 13.8 µM. The CC50 (IGROV1) was 99.1 µM, the GI50 (SR) was 3.25 µM and the CC50 (SR; read-out: LC50) was > 100 µM. For the same molecule, the GI50 (K-562) was 4.2 µM, the CC50 (K-562) was > 100 µM and the GI50 (OVCAR-3) was 13 µM. For the same molecule, the CC50 (OVCAR-3) was > 100 µM, the GI50 (NCI/ADR-RES) was 5.97 µM and the CC50 (NCI/ADR-RES) was > 100 µM. The GI50 (786-0) was 13.3 µM, the CC50 (786-0) was > 100 µM and the GI50 (OVCAR-4) was 7.94 µM. For the same molecule, the CC50 (OVCAR-4) was > 100 µM, the GI50 (NCI-H23) was 5.52 µM and the CC50 (NCI-H23) was > 100 µM. The GI50 (OVCAR-5) was 16.5 µM, the CC50 (OVCAR-5) was > 100 µM and the GI50 (SF-268) was 13.9 µM. The CC50 (SF-268) was > 100 µM, the GI50 (HL-60(TB)) was 19.1 µM and the CC50 (HL-60(TB)) was > 100 µM. The GI50 (SK-MEL-2) was 8.83 µM, the CC50 (SK-MEL-2) was > 100 µM and the GI50 (SF-295) was 8.61 µM. The CC50 (SF-295) was > 100 µM, the GI50 (A498) was 41.8 µM and the CC50 (A498) was > 100 µM. The GI50 (HOP-92) was 4.57 µM, the CC50 (HOP-92) was > 100 µM and the GI50 (TK-10) was 18.2 µM. The CC50 (TK-10) was > 100 µM, the GI50 (MDA-MB-435) was 11.4 µM and the CC50 (MDA-MB-435) was 70.4 µM. For the same molecule, the GI50 (CCRF-CEM) was 3.92 µM, the CC50 (CCRF-CEM) was > 100 µM and the GI50 (LOX IMVI) was 1.84 µM. For the same molecule, the CC50 (LOX IMVI) was 6.69 µM, the GI50 (UACC-257) was 8.76 µM and the CC50 (UACC-257) was > 100 µM. It also gave a GI50 (SN12C) of 3.89 µM and a CC50 (SN12C) of 73 µM.
